Measurements as given in patent publication US7618961B2, “Inhibitors of 11-beta-hydroxy steroid dehydrogenase type 1” (Biovitrum AB, priority 2000, dated 2009).
Where a name gives a salt, the structure may show the parent alone.

First: Cc1c(Cl)cccc1S(=O)(=O)Nc1nc(CC(=O)N(C)C)cs1 [Example 131A, 2-(2-{[(3-Chloro-2-methylphenyl)sulfonyl]amino}-1,3-thiazol-4-yl)-N,N-dimethylacetamide]
Second: Cc1c(Cl)cccc1S(=O)(=O)Nc1nc(CC(=O)O)cs1 (as salt: salt) [Example 87A, 2-(2-{[(3-Chloro-2-methylphenyl)sulfonyl]amino}-1,3-thiazol-4-yl)acetic acid]
The melting point of the first is lower: 84 °C for the first, 198 °C for the second.

Compared with `Cc1c(Cl)cccc1S(=O)(=O)Nc1nc(CC(=O)Oc2ccccc2)cs1` [Example 89A, Phenyl 2-(2-{[(3-chloro-2-methylphenyl)sulfonyl]amino}-1,3-thiazol-4-yl)acetate], `Cc1c(Cl)cccc1S(=O)(=O)Nc1nc(CC(=O)Nc2ccccc2)cs1` [Example 108A, 2-(2-{[(3-Chloro-2-methylphenyl)sulfonyl]amino}-1,3-thiazol-4-yl)-N-phenylacetamide] is higher in melting point: 189 °C for the first, 202 °C for the second.

First: CCNC(=O)Cc1csc(NS(=O)(=O)c2ccc(F)cc2F)n1 [Example 102A, 2-(2-{[(2,4-Difluorophenyl)sulfonyl]amino}-1,3-thiazol-4-yl)-N-ethylacetamide]
Second: CCNC(=O)Cc1csc(NS(=O)(=O)c2cccc(Cl)c2C)n1 [Example 107A, 2-(2-{[(3-Chloro-2-methylphenyl)sulfonyl]amino}-1,3-thiazol-4-yl)-N-ethylacetamide]
The melting point of the first is higher: 150 °C for the first, 96 °C for the second.

First: CNC(=O)Cc1csc(NS(=O)(=O)c2cccc(Cl)c2C)n1 [Example 106A, 2-(2-{[(3-Chloro-2-methylphenyl)sulfonyl]amino}-1,3-thiazol-4-yl)-N-methylacetamide]
Second: COC(=O)Cc1csc(NS(=O)(=O)c2cccc(Cl)c2C)n1 [Example 90A, Methyl (2-{[(3-chloro-2-methylphenyl)sulfonyl]amino}-1,3-thiazol-4-yl)acetate]
The melting point of the first is lower: 165 °C for the first, 187 °C for the second.

Compared with `Cc1c(Cl)cccc1S(=O)(=O)Nc1nc(CCOC(=O)C(C)C)cs1` [Example 193A, 2-(2-{[(3-Chloro-2-methylphenyl)sulfonyl]amino}-1,3-thiazol-4-yl)ethyl 2-methylpropanoate], `CCC(=O)OCCc1csc(NS(=O)(=O)c2cccc(Cl)c2C)n1` [Example 192B, 2-(2-{[(3-Chloro-2-methylphenyl)sulfonyl]amino}-1,3-thiazol-4-yl)ethyl propionate] is higher in melting point: 118 °C for the first, 122 °C for the second.

Compared with `CCOC(=O)Cc1csc(NS(=O)(=O)c2ccc(C(F)(F)F)cc2)n1` [Example 27A, Ethyl [2-({[4-(trifluoromethyl)phenyl]sulfonyl}amino)-1,3-thiazol-4-yl]acetate], `CCOC(=O)Cc1csc(NS(=O)(=O)c2cccc(C(F)(F)F)c2)n1` [Example 26A, Ethyl [2-({[3-(trifluoromethyl)phenyl]sulfonyl}amino)-1,3-thiazol-4-yl]acetate] is lower in melting point: 174 °C for the first, 145 °C for the second.

Compared with `Cc1sc(NS(=O)(=O)c2cccc(Cl)c2C)nc1CC(=O)N1CCOCC1` [Example 162A, 3-chloro-2-methyl-N-{5-methyl-4-[2-(4-morpholinyl)-2-oxoethyl]-1,3-thiazol-2-yl}benzenesulfonamide], `Cc1c(Cl)cccc1S(=O)(=O)Nc1nc(CC(=O)N2CCOCC2)cs1` [Example 148A, 3-Chloro-2-methyl-N-{4-[2-(4-morpholinyl)-2-oxoethyl]-1,3-thiazol-2-yl}benzenesulfonamide] is higher in melting point: 194 to 195 °C for the first, 208 to 209 °C for the second.

First: CCOC(=O)Cc1csc(NS(=O)(=O)c2ccc(-c3ccccc3)cc2)n1 [Example 10A, Ethyl 2-{2-[([1,1′-biphenyl]-4-ylsulfonyl)amino]-1,3-thiazol-4-yl}acetate]
Second: CCOC(=O)Cc1csc(NS(=O)(=O)c2ccc(C)cc2)n1 [Example 5A, Ethyl 2-(2-(((4-methylphenyl)sulfonyl)amino)-1,3-thiazol-4-yl)acetate]
The melting point of the first is higher: 182 °C for the first, 173 °C for the second.

First: Cc1c(Cl)cccc1S(=O)(=O)Nc1nc(CC(=O)N2CCSCC2)cs1 [Example 165A, 3-Chloro-2-methyl-N-{4-[2-oxo-2-(4-thiomorpholinyl)ethyl]-1,3-thiazol-2-yl}benzenesulfonamide]
Second: Cc1c(Cl)cccc1S(=O)(=O)Nc1nc(CC(=O)N2CCCC2)cs1 [Example 142A, 3-Chloro-2-methyl-N-{4-[2-oxo-2-(1-pyrrolidinyl)ethyl]-1,3-thiazol-2-yl}benzenesulfonamide]
The melting point of the first is lower: 103 to 106 °C for the first, 107 °C for the second.

First: CCOC(=O)Cc1csc(NS(=O)(=O)c2cc(Cl)ccc2Cl)n1 [Example 77A, Ethyl (2-{[(2,5-dichlorophenyl)sulfonyl]amino}-1,3-thiazol-4-yl)acetate]
Second: CCOC(=O)Cc1csc(NS(=O)(=O)c2cccc(Cl)c2C)n1 [Example 8A, Ethyl 2-(2-{[(3-chloro-2-methylphenyl)sulfonyl]amino}-1,3-thiazol-4-yl)acetate]
The melting point of the first is higher: 171 °C for the first, 154 °C for the second.

Going from `CCOC(=O)Cc1csc(NS(=O)(=O)c2ccc(Br)cc2)n1` [Example 28A, Ethyl 2-(2-{[(4-bromophenyl)sulfonyl]amino}-1,3-thiazol-4-yl)acetate] to `CCOC(=O)Cc1csc(NS(=O)(=O)c2cccc(Br)c2)n1` [Example 12A, Ethyl 2-(2-{[(3-bromophenyl)sulfonyl]amino}-1,3-thiazol-4-yl)acetate], the melting point falls from 183 °C to 155 °C.

First: CCOCCc1nc(NS(=O)(=O)c2cccc(Cl)c2C)sc1CN(C)C [Example 190A, 3-Chloro-N-[5-[(dimethylamino)methyl]-4(2-ethoxyethyl)-1,3-thiazol-2-yl]-2-methylbenzenesulfonamide]
Second: Cc1c(Cl)cccc1S(=O)(=O)Nc1nc(CCOC(=O)N2CCOCC2)cs1 [Example 196A, 2-(2-{[(3-Chloro-2-methylphenyl)sulfonyl]amino}-1,3-thiazol-4-yl)ethyl 4-morpholinecarboxylate]
The melting point of the first is lower: 152 to 153 °C for the first, 161 °C for the second.

First: O=C(O)Cc1csc(NS(=O)(=O)c2cc(Cl)sc2Cl)n1 (as salt: salt) [Example 85A, 2-(2-{[(2,5-Dichloro-3-thienyl)sulfonyl]amino}-1,3-thiazol-4-yl)acetic acid]
Second: CNC(=O)Cc1csc(NS(=O)(=O)c2cc(Cl)sc2Cl)n1 [Example 99A, 2-(2-{[(2,5-Dichloro-3-thienyl)sulfonyl]amino}-1,3-thiazol-4-yl)-N-methylacetamide]
The melting point of the first is lower: 174 °C for the first, 183 °C for the second.

Compared with `Cc1c(Cl)cccc1S(=O)(=O)Nc1nc(CC(=O)NC(c2ccccc2)c2ccccc2)cs1` [Example 113A, N-Benzhydryl-2-(2-{[(3-chloro-2-methylphenyl)sulfonyl]amino}-1,3-thiazol-4-yl)acetamide], `O=C(O)Cc1csc(NS(=O)(=O)c2ccccc2Cl)n1` [Example 86A, (2-{[(2-Chlorophenyl)sulfonyl]amino}-1,3-thiazol-4-yl)acetic acid] is lower in melting point: 200 °C for the first, 176 °C for the second.

First: CCOC(=O)Cc1csc(NS(=O)(=O)c2ccccc2C(F)(F)F)n1 [Example 25A, Ethyl [2-({[2-(trifluoromethyl)phenyl]sulfonyl}amino)-1,3-thiazol-4-yl]acetate]
Second: Cc1ccc(S(=O)(=O)Nc2nc(CC(=O)O)cs2)cc1 [Example 84A, 2-(2-{[(4-Methylphenyl)sulfonyl]amino}-1,3-thiazol-4-yl)acetic acid]
The melting point of the first is lower: 171 °C for the first, 187 °C for the second.

First: Cc1sc(NS(=O)(=O)c2ccc(-c3ccccc3)cc2)nc1CC(=O)N1CCOCC1 [Example 160A, N-{5-methyl-4-[2-(4-morpholinyl)-2-oxoethyl]-1,3-thiazol-2-yl}[1,1′-biphenyl]-4-sulfonamide]
Second: Cc1cc(Cl)cc(Cl)c1S(=O)(=O)Nc1nc(CC(=O)N2CCOCC2)c(C)s1 [Example 159A, 2,4-Dichloro-6-methyl-N-{5-methyl-4-[2-(4-morpholinyl)2-oxoethyl]-1,3-thiazol-2-yl}benzenesulfonamide]
The melting point of the first is higher: 204 to 206 °C for the first, 186 to 187 °C for the second.

In the case of `Cc1sc(NS(=O)(=O)c2c(Cl)cc(Cl)cc2Cl)nc1CC(=O)N1CCOCC1` [Example 161A, 2,4,6-trichloro-N-{5-methyl-4-[2-(4-morpholinyl)-2-oxoethyl]-1,3-thiazol-2-yl}benzenesulfonamide], the melting point is reported as 216 to 217 °C.
